# Reference: PubChem BioAssay AID256 (DTP/NCI, 2004)
# “And” between values parts separate entries of the source, which are not always exact repeats. Equal entries are not always repeated. Toxic doses and inconclusive results are not listed.
# Tested on: CD2F1 mice, L1210 leukemia ip, survival T/C
# Assay: NCI In Vivo Anticancer Drug Screen. Data for tumor model L1210 Leukemia (intraperitoneal) in CD2F1 (CDF1) mice
# Settings: higher = longer survival
# Procedure, shortened: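 Compound-dosed mice with transplantable tumor versus matched vehicle controls; endpoint ratio T/C reported.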
# [1] = endpoint: mean survival time, dose: 25.0 mg/kg/injection, schedule: Q01DX005 (ip), vehicle: water
# [2] = endpoint: mean survival time, dose: 50.0 mg/kg/injection, schedule: Q01DX005 (ip), vehicle: water
# [3] = endpoint: mean survival time, dose: 100.0 mg/kg/injection, schedule: Q01DX005 (ip), vehicle: water
# [4] = endpoint: mean survival time, dose: 200.0 mg/kg/injection, schedule: Q01DX005 (ip), vehicle: water
# [5] = endpoint: mean survival time, dose: 100.0 mg/kg/injection, schedule: Q04DX003 (ip), vehicle: saline with Tween-80
# [6] = endpoint: mean survival time, dose: 200.0 mg/kg/injection, schedule: Q04DX003 (ip), vehicle: saline with Tween-80
# [7] = endpoint: mean survival time, dose: 400.0 mg/kg/injection, schedule: Q04DX003 (ip), vehicle: saline with Tween-80
smiles,measurement,setting,value
O=C1c2c(O)ccc(O)c2C(=O)c2c(NCCNCCO)ccc(NCCNCCO)c21,T/C,"endpoint: mean survival time, dose: 0.13 mg/kg/injection, schedule: Q01DX005 (iv), vehicle: acid diluted with saline",104 % of control
same,T/C,"endpoint: mean survival time, dose: 0.13 mg/kg/injection, schedule: Q01DX005 (iv), vehicle: clinical formulation",109 % of control
same,T/C,"endpoint: mean survival time, dose: 0.13 mg/kg/injection, schedule: Q01DX009 (ip), vehicle: clinical formulation",276 % of control and 165 % of control
same,T/C,"endpoint: mean survival time, dose: 0.19 mg/kg/injection, schedule: Q01DX009 (ip), vehicle: saline",161 % of control and 195 % of control
same,T/C,"endpoint: mean survival time, dose: 0.25 mg/kg/injection, schedule: Q01DX005 (iv), vehicle: acid diluted with saline",110 % of control
same,T/C,"endpoint: mean survival time, dose: 0.25 mg/kg/injection, schedule: Q01DX005 (iv), vehicle: saline",117 % of control
same,T/C,"endpoint: mean survival time, dose: 0.25 mg/kg/injection, schedule: Q01DX009 (ip), vehicle: acid diluted with saline",170 % of control and 196 % of control
same,T/C,"endpoint: mean survival time, dose: 0.25 mg/kg/injection, schedule: Q01DX009 (ip), vehicle: clinical formulation",404 % of control and 223 % of control
same,T/C,"endpoint: mean survival time, dose: 0.38 mg/kg/injection, schedule: Q01DX009 (ip), vehicle: saline",182 % of control and 193 % of control
same,T/C,"endpoint: mean survival time, dose: 0.5 mg/kg/injection, schedule: Q01DX005 (iv), vehicle: acid diluted with saline",153 % of control
same,T/C,"endpoint: mean survival time, dose: 0.5 mg/kg/injection, schedule: Q01DX005 (iv), vehicle: clinical formulation",163 % of control and 159 % of control
same,T/C,"endpoint: mean survival time, dose: 0.5 mg/kg/injection, schedule: Q01DX005 (iv), vehicle: saline",152 % of control
same,T/C,"endpoint: mean survival time, dose: 0.5 mg/kg/injection, schedule: Q01DX005 (oral), vehicle: acid diluted with saline",102 % of control and 107 % of control
same,T/C,"endpoint: mean survival time, dose: 0.5 mg/kg/injection, schedule: Q01DX009 (ip), vehicle: acid diluted with saline",150 % of control and 171 % of control and 328 % of control
same,T/C,"endpoint: mean survival time, dose: 0.5 mg/kg/injection, schedule: Q01DX009 (ip), vehicle: clinical formulation",228 % of control
same,T/C,"endpoint: mean survival time, dose: 1.0 mg/kg/injection, schedule: Q01DX005 (ip), vehicle: acid diluted with saline",163 % of control
same,T/C,"endpoint: mean survival time, dose: 1.0 mg/kg/injection, schedule: Q01DX005 (iv), vehicle: acid diluted with saline",157 % of control and 170 % of control
same,T/C,"endpoint: mean survival time, dose: 1.0 mg/kg/injection, schedule: Q01DX005 (iv), vehicle: clinical formulation",324 % of control
same,T/C,"endpoint: mean survival time, dose: 1.0 mg/kg/injection, schedule: Q01DX005 (iv), vehicle: saline",180 % of control
same,T/C,"endpoint: mean survival time, dose: 1.0 mg/kg/injection, schedule: Q01DX005 (oral), vehicle: acid diluted with saline",101 % of control
same,T/C,"endpoint: mean survival time, dose: 1.0 mg/kg/injection, schedule: Q01DX009 (ip), vehicle: acid diluted with saline",168 % of control and 274 % of control and 307 % of control
same,T/C,"endpoint: mean survival time, dose: 1.0 mg/kg/injection, schedule: Q01DX009 (ip), vehicle: clinical formulation",494 % of control
same,T/C,"endpoint: mean survival time, dose: 1.0 mg/kg/injection, schedule: Q04DX003 (iv), vehicle: acid diluted with saline",151 % of control
same,T/C,"endpoint: mean survival time, dose: 2.0 mg/kg/injection, schedule: Q01DX005 (ip), vehicle: acid diluted with saline",198 % of control
same,T/C,"endpoint: mean survival time, dose: 2.0 mg/kg/injection, schedule: Q01DX005 (iv), vehicle: acid diluted with saline",168 % of control and 409 % of control
same,T/C,"endpoint: mean survival time, dose: 2.0 mg/kg/injection, schedule: Q01DX005 (iv), vehicle: clinical formulation",171 % of control
same,T/C,"endpoint: mean survival time, dose: 2.0 mg/kg/injection, schedule: Q01DX005 (iv), vehicle: saline",173 % of control
same,T/C,"endpoint: mean survival time, dose: 2.0 mg/kg/injection, schedule: Q01DX005 (oral), vehicle: acid diluted with saline",102 % of control and 109 % of control
same,T/C,"endpoint: mean survival time, dose: 2.0 mg/kg/injection, schedule: Q01DX009 (ip), vehicle: acid diluted with saline",246 % of control and 354 % of control
same,T/C,"endpoint: mean survival time, dose: 2.0 mg/kg/injection, schedule: Q01DX009 (ip), vehicle: clinical formulation",190 % of control
same,T/C,"endpoint: mean survival time, dose: 2.0 mg/kg/injection, schedule: Q04DX003 (ip), vehicle: acid diluted with saline",167 % of control and 223 % of control
same,T/C,"endpoint: mean survival time, dose: 2.0 mg/kg/injection, schedule: Q04DX003 (iv), vehicle: acid diluted with saline",189 % of control
same,T/C,"endpoint: mean survival time, dose: 3.89 mg/kg/injection, schedule: Q01DX001 (ip), vehicle: acid diluted with saline",190 % of control and 221 % of control
same,T/C,"endpoint: mean survival time, dose: 3.89 mg/kg/injection, schedule: Q01DX001 (iv), vehicle: acid diluted with saline",163 % of control and 173 % of control
same,T/C,"endpoint: mean survival time, dose: 4.0 mg/kg/injection, schedule: Q01DX005 (ip), vehicle: acid diluted with saline",256 % of control
same,T/C,"endpoint: mean survival time, dose: 4.0 mg/kg/injection, schedule: Q01DX005 (iv), vehicle: acid diluted with saline",90 % of control
same,T/C,"endpoint: mean survival time, dose: 4.0 mg/kg/injection, schedule: Q01DX005 (oral), vehicle: acid diluted with saline",102 % of control and 107 % of control
same,T/C,"endpoint: mean survival time, dose: 4.0 mg/kg/injection, schedule: Q01DX009 (ip), vehicle: acid diluted with saline",118 % of control and 101 % of control and 102 % of control
same,T/C,"endpoint: mean survival time, dose: 4.0 mg/kg/injection, schedule: Q04DX003 (ip), vehicle: acid diluted with saline",211 % of control and 230 % of control
same,T/C,"endpoint: mean survival time, dose: 4.0 mg/kg/injection, schedule: Q04DX003 (iv), vehicle: acid diluted with saline",260 % of control
same,T/C,"endpoint: mean survival time, dose: 6.48 mg/kg/injection, schedule: Q01DX001 (ip), vehicle: acid diluted with saline",248 % of control and 328 % of control
same,T/C,"endpoint: mean survival time, dose: 6.48 mg/kg/injection, schedule: Q01DX001 (iv), vehicle: acid diluted with saline",180 % of control and 181 % of control
same,T/C,"endpoint: mean survival time, dose: 8.0 mg/kg/injection, schedule: Q01DX005 (ip), vehicle: acid diluted with saline",98 % of control
same,T/C,"endpoint: mean survival time, dose: 8.0 mg/kg/injection, schedule: Q01DX005 (oral), vehicle: acid diluted with saline",100 % of control and 107 % of control
same,T/C,"endpoint: mean survival time, dose: 8.0 mg/kg/injection, schedule: Q04DX003 (ip), vehicle: acid diluted with saline",320 % of control
same,T/C,"endpoint: mean survival time, dose: 8.0 mg/kg/injection, schedule: Q04DX003 (iv), vehicle: acid diluted with saline",163 % of control
same,T/C,"endpoint: mean survival time, dose: 10.8 mg/kg/injection, schedule: Q01DX001 (ip), vehicle: acid diluted with saline",207 % of control and 309 % of control
same,T/C,"endpoint: mean survival time, dose: 10.8 mg/kg/injection, schedule: Q01DX001 (iv), vehicle: acid diluted with saline",233 % of control and 261 % of control
same,T/C,"endpoint: mean survival time, dose: 16.0 mg/kg/injection, schedule: Q01DX005 (oral), vehicle: acid diluted with saline",93 % of control and 109 % of control
same,T/C,"endpoint: mean survival time, dose: 16.0 mg/kg/injection, schedule: Q04DX003 (iv), vehicle: acid diluted with saline",110 % of control
same,T/C,"endpoint: mean survival time, dose: 18.0 mg/kg/injection, schedule: Q01DX001 (ip), vehicle: acid diluted with saline",191 % of control and 344 % of control
same,T/C,"endpoint: mean survival time, dose: 18.0 mg/kg/injection, schedule: Q01DX001 (iv), vehicle: acid diluted with saline",308 % of control and 344 % of control
same,T/C,"endpoint: mean survival time, dose: 30.0 mg/kg/injection, schedule: Q01DX001 (ip), vehicle: acid diluted with saline",289 % of control
same,T/C,"endpoint: mean survival time, dose: 30.0 mg/kg/injection, schedule: Q01DX001 (iv), vehicle: acid diluted with saline",156 % of control
same,T/C,"endpoint: median survival time, dose: 0.25 mg/kg/injection, schedule: Q01DX009 (ip), vehicle: acid diluted with saline",172 % of control
same,T/C,"endpoint: median survival time, dose: 0.5 mg/kg/injection, schedule: Q01DX009 (ip), vehicle: acid diluted with saline",170 % of control and 197 % of control
same,T/C,"endpoint: median survival time, dose: 1.0 mg/kg/injection, schedule: Q01DX009 (ip), vehicle: acid diluted with saline",179 % of control and 182 % of control
same,T/C,"endpoint: median survival time, dose: 1.08 mg/kg/injection, schedule: Q04DX003 (ip), vehicle: saline",151 % of control
same,T/C,"endpoint: median survival time, dose: 1.8 mg/kg/injection, schedule: Q04DX003 (ip), vehicle: saline",175 % of control
same,T/C,"endpoint: median survival time, dose: 2.0 mg/kg/injection, schedule: Q01DX009 (ip), vehicle: acid diluted with saline",219 % of control and 370 % of control
same,T/C,"endpoint: median survival time, dose: 2.16 mg/kg/injection, schedule: Q01DX001 (iv), vehicle: saline",170 % of control
same,T/C,"endpoint: median survival time, dose: 3.6 mg/kg/injection, schedule: Q01DX001 (iv), vehicle: saline",170 % of control
same,T/C,"endpoint: median survival time, dose: 5.0 mg/kg/injection, schedule: Q04DX003 (ip), vehicle: saline",208 % of control
same,T/C,"endpoint: median survival time, dose: 6.0 mg/kg/injection, schedule: Q01DX001 (iv), vehicle: saline",196 % of control
CCOC(=S)SCCSC,T/C,"endpoint: mean survival time, dose: 100.0 mg/kg/injection, schedule: Q01DX001 (ip), vehicle: saline",103 % of control
same,T/C,"endpoint: mean survival time, dose: 200.0 mg/kg/injection, schedule: Q01DX001 (ip), vehicle: saline",98 % of control
OCC1OC(n2ncc3c2nnn2ncnc32)C(O)C1O (centres undefined),T/C,[1],92 % of control
same,T/C,[2],99 % of control
same,T/C,[3],94 % of control
same,T/C,[4],87 % of control
same,T/C,"endpoint: mean survival time, dose: 400.0 mg/kg/injection, schedule: Q01DX005 (ip), vehicle: water",113 % of control
Cc1cc(=O)cc(CC(=O)C(=O)O)o1,T/C,"endpoint: mean survival time, dose: 100.0 mg/kg/injection, schedule: Q01DX009 (ip), vehicle: saline sonified",101 % of control
same,T/C,[5],97 % of control
same,T/C,[6],95 % of control
same,T/C,[7],97 % of control
C=C(C)COc1cc(C=NCCCC)c(C)cc1C,T/C,"endpoint: mean survival time, dose: 100.0 mg/kg/injection, schedule: Q01DX009 (ip), vehicle: saline with Tween-80",98 % of control
same,T/C,"endpoint: mean survival time, dose: 200.0 mg/kg/injection, schedule: Q01DX009 (ip), vehicle: saline with Tween-80",94 % of control
same,T/C,"endpoint: mean survival time, dose: 400.0 mg/kg/injection, schedule: Q01DX009 (ip), vehicle: saline with Tween-80",96 % of control
NC(=O)c1cc(C(N)=O)n(C2OC(CO)C(O)C2O)n1 (centres undefined),T/C,"endpoint: mean survival time, dose: 12.5 mg/kg/injection, schedule: Q01DX005 (ip), vehicle: water",100 % of control
same,T/C,[1],100 % of control
same,T/C,[2],92 % of control
same,T/C,[3],107 % of control
same,T/C,[4],96 % of control
COc1ccc2[nH]c(-c3ccccc3)cc2c1,T/C,[5],93 % of control
same,T/C,[6],88 % of control
same,T/C,[7],98 % of control
CN(C)c1ccc(/C=N\O)c2c1CCC2,T/C,[5],102 % of control
same,T/C,[6],102 % of control
same,T/C,[7],100 % of control
